Data from EP4653444A1, “FUSED TRICYCLIC COMPOUND AS KINASE INHIBITOR” (Hangzhou Innogate Pharma Co., Ltd., priority 2023, dated 2024).
pIC50: −log10 of the molar value. Where two headings read alike, the source gives them in different places.

How the values were obtained:
FLT3 = biological target: T1, FLT3 (Homo sapiens, UniProt P36888); assay: FLT3 kinase activity inhibition assay (Mobility shift assay); assay type: biochemical
T1 sequence (P36888 27-993): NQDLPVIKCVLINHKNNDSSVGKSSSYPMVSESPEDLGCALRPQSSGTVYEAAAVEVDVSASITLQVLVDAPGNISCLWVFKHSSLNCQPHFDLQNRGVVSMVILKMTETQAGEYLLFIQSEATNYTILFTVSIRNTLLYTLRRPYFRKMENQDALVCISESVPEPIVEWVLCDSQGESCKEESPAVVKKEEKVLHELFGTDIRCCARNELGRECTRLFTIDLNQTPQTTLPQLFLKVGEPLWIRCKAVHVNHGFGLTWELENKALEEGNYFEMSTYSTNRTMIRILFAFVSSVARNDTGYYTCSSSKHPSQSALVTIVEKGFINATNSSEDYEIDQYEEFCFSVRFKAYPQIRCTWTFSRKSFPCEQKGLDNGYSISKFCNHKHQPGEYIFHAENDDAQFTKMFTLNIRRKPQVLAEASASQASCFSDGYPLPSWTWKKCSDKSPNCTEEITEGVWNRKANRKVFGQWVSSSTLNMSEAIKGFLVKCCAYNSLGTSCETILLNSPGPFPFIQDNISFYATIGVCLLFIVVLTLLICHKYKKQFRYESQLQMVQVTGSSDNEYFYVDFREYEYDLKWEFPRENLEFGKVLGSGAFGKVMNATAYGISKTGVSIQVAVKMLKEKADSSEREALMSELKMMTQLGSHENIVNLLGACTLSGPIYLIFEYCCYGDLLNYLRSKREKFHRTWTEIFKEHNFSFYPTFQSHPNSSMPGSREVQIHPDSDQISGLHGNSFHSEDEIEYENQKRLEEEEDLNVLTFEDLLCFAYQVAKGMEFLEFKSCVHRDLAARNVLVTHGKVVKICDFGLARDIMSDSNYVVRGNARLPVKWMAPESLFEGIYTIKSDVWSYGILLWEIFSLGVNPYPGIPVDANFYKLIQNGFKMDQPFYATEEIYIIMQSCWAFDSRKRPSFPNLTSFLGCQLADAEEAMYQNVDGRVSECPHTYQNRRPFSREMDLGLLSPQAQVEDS
Protocol: Testing compound inhibitory activity against FLT3 and AXL kinases using Mobility shift assay. Compounds were dissolved in 100% DMSO to prepare 10 mM stock solutions. Prepare 1× Kinase Buffer. Test compounds were serially diluted in 5-fold gradients, and 250 nL of 100× final concentration compounds were transferred to destination plate 3573 using an Echo 550 liquid handler. A 2.5× final concentration kinase solution was prepared in 1× Kinase Buffer. Then, 10 µL of the 2.5× kinase solution was added to both compound wells and positive control wells, while 10 µL of 1× Kinase Buffer was added to negative control wells. The plate was centrifuged at 1000 rpm for 30 seconds, mixed by orbital shaking, and incubated at room temperature for 10 minutes. A 5/3× final concentration mixture of ATP and Kinase Substrate 25 was prepared in 1× Kinase Buffer. The reaction was initiated by adding 15 µL of the 5/3× ATP/substrate mixture. The 384-well plate was centrifuged at 1000 rpm for 30 seconds, mixed by shaking, and incubated at room temperature for 120 minutes. The kinase reaction was terminated by adding 30 µL stop solution, followed by centrifugation at 1000 rpm for 30 seconds and mixing. Conversion rates were measured using a Caliper EZ Reader. %Inhibition = (Conversion%_max - Conversion%_sample)/(Conversion%_max - Conversion%_min) × 100. Where: Conversion%_sample: Conversion rate reading of test samples; Conversion%_min: Mean value of negative control wells (representing conversion rate without enzyme activity); Conversion%_max: Mean value of positive control wells (representing conversion rate without compound inhibition). Dose-response curves were plotted with log(concentration) as the X-axis and percentage inhibition as the Y-axis. Curve fitting was performed using GraphPad Prism 5 software with the "log(inhibitor) vs. response - Variable slope" model to derive IC50 values for each compound's enzyme inhibitory activity. The fitting formula was: Y = Bottom + (Top - Bottom)/(1 + 10^((LogIC50 - X) × HillSlope)).

ALK kinase = ALK kinase (Homo sapiens, UniProt Q9UM73); assay: ALK kinase activity inhibition assay (HTRF); assay type: biochemical
Sequence of ALK kinase (Q9UM73 19-1620): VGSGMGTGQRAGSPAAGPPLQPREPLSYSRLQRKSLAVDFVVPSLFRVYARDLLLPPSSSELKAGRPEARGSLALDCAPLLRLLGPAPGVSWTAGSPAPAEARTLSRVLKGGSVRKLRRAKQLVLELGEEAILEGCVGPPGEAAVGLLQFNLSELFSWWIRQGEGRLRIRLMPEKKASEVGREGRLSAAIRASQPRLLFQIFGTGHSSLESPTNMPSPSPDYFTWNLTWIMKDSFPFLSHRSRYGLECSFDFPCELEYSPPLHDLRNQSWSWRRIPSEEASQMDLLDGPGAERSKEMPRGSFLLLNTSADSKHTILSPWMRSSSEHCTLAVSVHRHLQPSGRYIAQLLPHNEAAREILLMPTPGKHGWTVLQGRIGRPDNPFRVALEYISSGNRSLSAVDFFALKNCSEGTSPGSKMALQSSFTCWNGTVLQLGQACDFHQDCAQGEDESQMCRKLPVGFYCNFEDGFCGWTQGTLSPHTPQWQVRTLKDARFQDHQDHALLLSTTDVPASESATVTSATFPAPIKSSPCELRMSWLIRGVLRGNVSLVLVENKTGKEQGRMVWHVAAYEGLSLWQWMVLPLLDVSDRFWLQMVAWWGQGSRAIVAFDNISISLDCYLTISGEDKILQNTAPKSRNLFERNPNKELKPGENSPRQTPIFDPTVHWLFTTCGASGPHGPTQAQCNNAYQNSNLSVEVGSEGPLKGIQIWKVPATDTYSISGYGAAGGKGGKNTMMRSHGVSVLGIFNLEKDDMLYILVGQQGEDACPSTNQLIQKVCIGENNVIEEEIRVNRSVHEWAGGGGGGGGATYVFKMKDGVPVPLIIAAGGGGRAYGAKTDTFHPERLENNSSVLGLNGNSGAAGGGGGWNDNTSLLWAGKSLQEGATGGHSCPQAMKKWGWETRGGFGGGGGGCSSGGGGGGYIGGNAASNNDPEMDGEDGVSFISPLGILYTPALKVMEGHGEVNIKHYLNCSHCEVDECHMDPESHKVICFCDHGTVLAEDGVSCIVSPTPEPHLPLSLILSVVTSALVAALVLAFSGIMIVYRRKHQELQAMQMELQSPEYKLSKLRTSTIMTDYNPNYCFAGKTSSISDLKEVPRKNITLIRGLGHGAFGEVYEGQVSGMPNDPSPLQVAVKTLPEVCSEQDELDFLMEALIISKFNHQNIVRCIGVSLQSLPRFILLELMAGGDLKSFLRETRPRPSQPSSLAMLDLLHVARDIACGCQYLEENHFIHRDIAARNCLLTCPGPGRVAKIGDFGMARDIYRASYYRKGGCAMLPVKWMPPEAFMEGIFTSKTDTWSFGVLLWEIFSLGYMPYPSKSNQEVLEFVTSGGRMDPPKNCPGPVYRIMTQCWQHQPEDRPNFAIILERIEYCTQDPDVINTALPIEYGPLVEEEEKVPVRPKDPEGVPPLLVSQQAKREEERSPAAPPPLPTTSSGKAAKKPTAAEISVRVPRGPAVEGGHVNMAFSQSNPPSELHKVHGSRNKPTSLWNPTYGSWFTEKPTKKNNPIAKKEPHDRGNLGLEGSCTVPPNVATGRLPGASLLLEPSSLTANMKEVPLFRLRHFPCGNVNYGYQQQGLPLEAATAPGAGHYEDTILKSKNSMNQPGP
Protocol: Measure compound inhibitory activity against ALK kinase using HTRF Assay.1× kinase reaction buffer was prepared. The kinase reaction conditions were as follows: kinase concentration at 0.04 ng/µL; ATP working concentration in substrate mixture solution at 2 µM; final substrate concentration at 1 µM. Compounds were serially diluted in DMSO and shaken on an orbital shaker for 20 minutes. 2× kinase solution was prepared using 1× kinase reaction buffer. 1 µL of compound solution was transferred to a 384-well plate. 2 µL of kinase solution was added to each well of the reaction plate. The plate was sealed with adhesive film, centrifuged at 1000 rpm for 60 seconds, and incubated at 25°C for 10 minutes. 2.5× ATP/substrate mixture was prepared using 1× kinase reaction buffer. 2 µL of 2.5× ATP/substrate mixture was added to the reaction plate. The plate was sealed with adhesive film, centrifuged at 1000 rpm for 60 seconds, and incubated at 25°C for 50 minutes. 4× Sa-XL 665 solution was prepared using HTRF detection buffer. 5 µL of Sa-XL 665 solution and 5 µL of TK-antibody-Cryptate solution were added to each well. The plate was centrifuged at 1000 rpm for 60 seconds and incubated at 25°C for 60 minutes. Fluorescence signals were measured at 615 nm (Cryptate) and 665 nm (XL665) using a BMG microplate reader. The ratio for each well was calculated as: Ratio_665/615nm. The inhibition percentage was calculated as follows: % inhibition = 100% - [(Compound Ratio - Positive Control Ratio)/(Negative Control Ratio - Positive Control Ratio)] × 100%. The IC50 values (half-maximal inhibitory concentration) of compounds were determined by fitting the data to the following nonlinear regression equation using GraphPad Prism 7.0 software: Y = Bottom + (Top - Bottom)/(1 + 10^(([…] - X) × Hill Slope)) where: X = log(compound concentration), Y = % inhibition.

[1] = Table 4, ATP 2 µM, read-out: ALK (IC50)

Structure (SMILES)	pIC50 (FLT3; Table 3, read-out: FLT3 (IC50))	pIC50 (FLT3)	pIC50 (ALK kinase)	pIC50 (FLT3; Table 4, read-out: FLT3 (IC50))	pIC50 (ALK kinase; [1])
COc1cc2c(cc1Nc1ncc(Cl)c(Nc3ccccc3S(=O)(=O)C(C)C)n1)OC[C@@H]1CN(C3CCOCC3)CCN21 [Compound C1S]	> 7.52				
COc1cc2c(cc1Nc1ncc(Cl)c(Nc3ccccc3S(=O)(=O)C(C)C)n1)OC[C@@H]1CN(C3CCN(C)CC3)CCN21 [Compound C2S]		> 7.52	> 10.30		
CNC(=O)c1ccccc1Nc1cc(Nc2cc3c(cc2OC)N2CCN(C4CCN(C)CC4)C[C@@H]2CO3)ncc1C(F)(F)F [Compound D2R]		> 7.70	> 8.00		
CNC(=O)c1ccccc1Nc1cc(Nc2cc3c(cc2OC)N2CCN(C4CCN(C)CC4)C[C@H]2CO3)ncc1C(F)(F)F [Compound D2S]				> 7.30	> 7.82
CNC(=O)c1ccccc1Nc1cc(Nc2cc3c(cc2OC)N2CCN(C4CN(C)C4)C[C@H]2CO3)ncc1C(F)(F)F [Compound D4S]				> 7.15	> 7.82
